Measured values published in US20120022142A1, “RNA Interference Mediated Inhibition of Signal Transducer and Activator of Transcription 1 (STAT1) Gene Expression Using Short Interfering Nucleic Acid (siNA)” (Merck Sharp & Dohme Corp., priority 2009, published 2012).
[invAb] = inverted abasic unit; m = 2'-O-methyl; r = 2'-OH (RNA); f = 2'-fluoro

Assays:
STAT1 human mRNA = experiment: Initial screen of siNAs: STAT1 mRNA knock-down in A549 cells (96-well transfection, Taqman RT-PCR); type: cell-based; conditions: 10 nM siNA, 24 hrs, normalized against GAPDH, average of 2 experiments
Method: A549 (human; ATCC cat# CCL-185): Cells were cultured at 37° C. in the presence of 5% CO2 and grown in Ham's F12K medium with 2 mM L-glutamine adjusted to contain 1.5 g/L sodium bicarbonate and supplemented with fetal bovine serum at a final concentration of 10% and 100 μg/mL of streptomycin and 100 U/mL penicillin.
Cells were plated in all wells of a tissue-culture treated, 96-well plate at a final count of 5000 cells/well in 100 μL of the appropriate culture media. The cells were cultured for 24 hours after plating at 37° C. in the presence of 5% CO2.
After 24 hours, complexes containing siNA and RNAiMax were created as follows: A solution of RNAiMax diluted 33-fold in OPTI-MEM was prepared. In parallel, solutions of the siNAs for testing were prepared to a final concentration of 120 nM in OPTI-MEM. After incubation of RNAiMax/OPTI-MEM solution at room temperature for 5 min, an equal volume of the siNA solution and the RNAiMax solution were added together for each of the siNAs.
This solution was incubated at room temperature for 20 minutes. After incubation, 20 uL of the solution was added to each of the relevant wells. The final concentration of siNA in each well was 10 nM and the final volume of RNAiMax in each well was 0.3 ul.
The time of incubation with the RNAiMax-siNA complexes was 24 hours and there was no change in media between transfection and harvesting, unless otherwise indicated.
RNA was extracted from a 96-well plate using the TaqMan® Gene Expression Cells-to-CT™ Kit (Cat# 4399002) with a modified protocol. Briefly, a 60 uL (1 plate) or 110 uL (2 plates) of the Lysis Solution with DNase I was dispensed into each well of the Lysis Buffer Plate (twin.tec full skirt plate). The lysis buffer and stop plates were stored at 4° C. until the cells were washed.
The culture medium was aspirated and discarded from the wells of the culture plate. 50 uL of chilled DPBS was added to each well, then aspirated and discarded. The lysis was performed automatically using a BioMek FX instrument and method. After the Biomek method was completed, the lysis plate was incubated for 2 min at room temperature. The lysis plate can be stored for 2 hours at 4° C., or at −20° C. or −80° C. for two months.
Each well of the reverse transcription plate required 10 uL of 2× reverse transcriptase Buffer, 1 uL of 20× reverse transcription enzyme and 2 uL of nuclease-free water. The reverse transcription master mix was prepared by mixing 2× reverse transcription buffer, 20× reverse transcription enzyme mix, and nuclease-free water. 13 uL of the reverse transcription master mix was dispensed into each well of the reverse transcription plate (semi-skirted). A separate reverse transcription plate was prepared for each cell plate. The plate was loaded onto a Biomek NX or Biomek FX Dual-96 and the Biomek method was run. The program is programmed to automatically added 7 uL of lysate from the cell lysis procedure described above into each well of the reverse transcription plate. The plate is sealed and spun on a centrifuge (1000 rpm for 30 seconds) to settle the contents to the bottom of the reverse transcription plate. The plate is placed in a thermocycler at 37° C. for 60 min, 95° C. for 5 min, and 4° C. until the plate is removed from the thermocycler. Upon removal, if not used immediately, the plate was frozen at −20° C.
(§1) A series of probes and primers were used to detect the various mRNA transcripts of the genes of β-Actin (human cell line only), and of STAT1 and GAPDH in mouse and human cell lines. All Taqman probes and primers for the experiments here-in described were supplied as pre-validated sets by Applied Biosystems, Inc. (see Table 2).
The assays were performed on an ABI 7900 instrument, according to the manufacturer's instructions.
Within each experiment, the baseline was set in the exponential phase of the amplification curve, and based on the intersection point of the baselines with the amplification curve, a Ct value was assigned by the instrument. […]

STAT3 mRNA = experiment: Effect of STAT1 siRNAs on expression of STAT3 mRNA in A549 cells (quantitative RT-PCR); type: cell-based, human; conditions: 1 nM siRNA, normalized to GAPDH
Excerpt: as §1
The levels of expression of STAT3 were normalized to the level of GAPDH. There was no significant effect (p>0.05) of treatment with any of the lead STAT1 siRNAs on the expression human or mouse STAT3 mRNA at 1 nM (10 to 100 times the IC50s of the siRNAs).

STAT1 mRNA = STAT1 mRNA level at 24, 48 and 72 hours post-transfection in A549 cells; type: cell-based, human; conditions: STAT1 mRNA remaining vs control, A549, 30 nM; for mRNA 24 hr: 24 hr post-transfection; for mRNA 48 hr: 48 hr post-transfection; for mRNA 72 hr: 72 hr post-transfection
Method: A549 cells were plated in 6-well plates at final counts of 70,000 cells/well in 2 ml of complete growth media (Ham's F12, Cellgro Cat# 10-080-CV+10% FBS). Transfection was performed using 2.5 uL of RNAiMax (Invitrogen Cat# 13778-150) per well. Final concentration of siNAs was 30, 3, 0.3, 0.03, 0.003, and 0.0003 nM done in duplicate. The siNAs were incubated for 24-72 hours. The duplicate samples were pooled to prepare protein lysates and RNA using the “PARIS” Protein and RNA Isolation System from Ambion, Cat# 1921. The total protein in the lysates was measured using a Bradford Dye Reagent (Bio-Rad, Cat# 500-0205).SDS-PAGE/Western Blotting was performed on the on the protein samples and RT-PCR on the RNA samples.
as §1
An assessment of the level of mRNA at each timepoint was also made and protein samples from the treated cells were used in Western blots with an α-STAT1 antibody. (Clontech, Cat# 610185) and anti-Tubulin Ab (Sigma # T6199) in human A549 cells. Cells were transfected 24, 48 or 72 hours before harvesting total protein and the final concentration of siNAs was 30 nM. Lanes were loaded with 10 ug of total protein. Quantification was done of both the STAT1α and the STAT1β proteins together. All the siNAs tested reduced STAT1 protein at each of the tested timepoints, with the highest degree of protein reduction being observed at 72 hours post-transfection.

Substance	% KD Human (STAT1 human mRNA) [%]	STAT3 % KD at 1 nM (STAT3 mRNA) [%]	mRNA 24 hr (STAT1 mRNA) [%]	mRNA 48 hr (STAT1 mRNA) [%]	mRNA 72 hr (STAT1 mRNA) [%]
25368-DC: STAT1 siNA duplex, human target site 782; modified strands SEQ ID NO: 73 and 74 (chain 1 GUAAAGUCAGAAAUGUGAATT; chain 2 UUCACAUUUCUGACUUUACUU; chain 1: DNA at AGT, 2'-fluoro at CU, [invAb] at 5' end, 3' end, backbone not given here; chain 2: sugars from the 5' end rrrmfmfffffmmffffmfmm, backbone not given here)	91	−2	3	3	3
25351-DC: STAT1 siNA duplex, human target site 2249; modified strands SEQ ID NO: 39 and 40 (chain 1 CCUACACGAAGAAAGAACUTT; chain 2 AGUUCUUUCUUCGUGUAGGUU; chain 1: DNA at AGT, 2'-fluoro at CU, [invAb] at 5' end, 3' end, backbone not given here; chain 2: sugars from the 5' end rrrfffffffffmfmfmmmmm, backbone not given here)	90	8	3	2	2
25367-DC: STAT1 siNA duplex, human target site 966; modified strands SEQ ID NO: 71 and 72 (chain 1 GCUUGACAAUAAGAGAAAGTT; chain 2 CUUUCUCUUAUUGUCAAGCUU; chain 1: DNA at AGT, 2'-fluoro at CU, [invAb] at 5' end, 3' end, backbone not given here; chain 2: sugars from the 5' end rrrffffffmffmffmmmfmm, backbone not given here)	91	12	3	2	2
25372-DC: STAT1 siNA duplex, human target site 968; modified strands SEQ ID NO: 81 and 82 (chain 1 UUGACAAUAAGAGAAAGGATT; chain 2 UCCUUUCUCUUAUUGUCAAUU; chain 1: DNA at AGT, 2'-fluoro at CU, [invAb] at 5' end, 3' end, backbone not given here; chain 2: sugars from the 5' end rrrffffffffmffmffmmmm, backbone not given here)	92	3	4	3	3
25369-DC: STAT1 siNA duplex, human target site 602; modified strands SEQ ID NO: 75 and 76 (chain 1 GGAAAAGCAAGCGUAAUCUTT; chain 2 AGAUUACGCUUGCUUUUCCUU; chain 1: DNA at AGT, 2'-fluoro at CU, [invAb] at 5' end, 3' end, backbone not given here; chain 2: sugars from the 5' end rrrffmfmfffmfffffffmm, backbone not given here)	92	−2	8	7	14
